Assay results from patent US20220090096A1 (priority 2019, published 2022).

Legend:
[1] = tested on: Clostridium spp.; settings: cited from earlier work
[2] = tested on: Pfdx-rbG-botR-T1-Pntnh-catP construct integrated in the pyrE locus; assay type: cell-based, C. botulinum ATCC 19397 ΔClA

Compound	effect on cell growth [1]	CAT expression upon induction relative to absence of theophylline [2]
Cc1c2c(c(O)c3c(O)cccc13)C(=O)[C@]1(O)C(=O)C(C(N)=O)=C(O)[C@@H](N(C)C)[C@@H]1C2 [anhydrotetracycline]	significant inhibitory effects on cell growth	
Cn1c(=O)c2[nH]cnc2n(C)c1=O [theophylline]		approximately 7 fold
